The nature of assay [1]: HIV-1 Vif–A3G interaction blockers – biochemical, TR-FRET, GST-Vif 1-94, biotin-A3G peptide, dose response retest, primary screen (AID 1117319).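 Note: TR-FRET signal of purified GST-Vif binding a biotinylated A3G peptide; inhibitors lower the FRET signal by blocking Vif and A3G binding.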 Type of assay: functional. (In general: Time-resolved FRET reads energy transfer from a long-lived donor to a nearby acceptor.)
In assay [2] the target is T1, RNA-binding protein pos-1 (Caenorhabditis elegans, UniProt G5EF15).
T1 sequence (G5EF15 whole entry): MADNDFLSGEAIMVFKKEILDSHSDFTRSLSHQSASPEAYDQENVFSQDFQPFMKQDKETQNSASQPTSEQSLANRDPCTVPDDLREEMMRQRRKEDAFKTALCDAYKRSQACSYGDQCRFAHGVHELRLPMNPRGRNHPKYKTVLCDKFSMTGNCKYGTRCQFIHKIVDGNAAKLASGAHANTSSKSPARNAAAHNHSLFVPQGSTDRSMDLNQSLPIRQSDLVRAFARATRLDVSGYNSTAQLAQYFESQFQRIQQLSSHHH
The experiment in a line: disruptors of C. elegans POS-1 RNA interaction – biochemical, fluorescence polarization, dose response (AID 1964).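 Note: purified POS-1 fused to maltose binding protein made in E. coli; potency of compounds blocking POS-1 binding to fluorescent RNA.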

Assay [3] deals with T2, Zinc finger protein mex-5 (Caenorhabditis elegans, UniProt Q9XUB2).
T2 sequence (Q9XUB2 whole entry): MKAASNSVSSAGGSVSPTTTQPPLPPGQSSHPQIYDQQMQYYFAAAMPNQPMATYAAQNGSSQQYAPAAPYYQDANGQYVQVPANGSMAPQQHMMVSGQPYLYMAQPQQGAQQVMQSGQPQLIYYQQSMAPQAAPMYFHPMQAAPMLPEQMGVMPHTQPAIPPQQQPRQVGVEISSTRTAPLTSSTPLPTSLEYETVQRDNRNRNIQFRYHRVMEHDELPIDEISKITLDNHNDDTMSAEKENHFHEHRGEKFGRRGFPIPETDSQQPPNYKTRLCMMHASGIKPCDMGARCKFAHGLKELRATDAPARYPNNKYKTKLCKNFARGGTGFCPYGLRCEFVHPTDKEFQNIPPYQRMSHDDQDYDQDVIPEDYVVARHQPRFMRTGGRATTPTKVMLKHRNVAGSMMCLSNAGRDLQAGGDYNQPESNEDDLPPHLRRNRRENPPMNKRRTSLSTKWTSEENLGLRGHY
The experiment in a line: potency of MEX-5 RNA-binding blockers – biochemical, C. elegans, fluorescence polarization, dose response (AID 1960).

A further assay addresses Large T antigen (Simian virus 40, UniProt P03070). Format: functional, Betapolyomavirus macacae.
Assay [4] concerns the target DNA dC->dU-editing enzyme APOBEC-3A (Homo sapiens, UniProt P31941). The experiment in a line: Dose Response confirmation of small molecule APOBEC3A DNA Deaminase Inhibitors via a fluorescence-based single-stranded DNA deaminase assay. [Related pubchem assays (depositor defined):AID493011, AID493024]. Type of assay: functional.
Assay [5] deals with DNA dC->dU-editing enzyme APOBEC-3G (Homo sapiens, UniProt Q9HC16). Type of assay: functional.
Assay [6] concerns the target T3, Carboxy-terminal domain RNA polymerase II polypeptide A small phosphatase 1 (Homo sapiens, UniProt Q9GZU7).
T3 sequence (Q9GZU7 whole entry): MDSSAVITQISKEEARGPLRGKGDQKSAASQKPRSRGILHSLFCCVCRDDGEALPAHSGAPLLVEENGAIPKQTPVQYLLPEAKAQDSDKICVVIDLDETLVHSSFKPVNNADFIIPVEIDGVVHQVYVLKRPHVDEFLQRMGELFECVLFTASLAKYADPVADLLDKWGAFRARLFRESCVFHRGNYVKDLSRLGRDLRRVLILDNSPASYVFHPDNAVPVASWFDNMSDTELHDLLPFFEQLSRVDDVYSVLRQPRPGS
The assay can be described thus: CTDSP1 inhibitors, concentration-response, biochemical, absorbance readout, ultra-high-throughput screen actives (AID 540297). Format: functional.

Another assay concerns the target T4, Protein Tat (Human immunodeficiency virus type 1 group M subtype B (isolate HXB2)(HIV-1), UniProt P04608).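 Note: tat binding to TAR RNA read out by fluorescence polarization.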
T4 sequence (P04608 whole entry): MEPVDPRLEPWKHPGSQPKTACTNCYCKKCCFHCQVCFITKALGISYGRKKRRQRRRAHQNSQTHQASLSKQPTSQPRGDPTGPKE
Format: functional.

Assay [7] addresses Voltage-dependent T-type calcium channel subunit alpha-1H (Homo sapiens, UniProt O95180). Type of assay: functional.
A short description of assay [8]: viability of uninfected HEp-2 cells – cell-based, HTS, cytotoxicity control for RSV inhibitor project, dose response (AID 2410). Format: functional. As to conditions: human respiratory syncytial virus.
The nature of assay [9]: cells.
The test system of assay [10] is Vero. The assay can be described thus: cells. Type of assay: functional, cell-based. As to conditions: Chlorocebus sabaeus.
In assay [11] the target is Eukaryotic translation initiation factor 4E (Mus musculus, UniProt P63073). The experiment in a line: blockers of eIF4G binding by eIF4E – biochemical, TR-FRET, dose response (AID 855).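 Note: potency for disrupting eIF4E binding to eIF4GI seen as loss of FRET.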 Format: functional.
Assay [12] addresses T5, E3 ubiquitin-protein ligase XIAP (Homo sapiens, UniProt P98170). The experiment in a line: Counter Screen using XIAP-Bir3 for Chemical Antagonists of Bir1/2 domains of IAP-family anti-apoptotic proteins. [Related pubchem assays (depositor defined):AID1018, AID1449, AID1514, AID1638, AID1749, AID1750, AID488957, AID488963].
Assay [13] concerns the target T5, E3 ubiquitin-protein ligase XIAP. The experiment in a line: small molecules displacing peptide from XIAP – biochemical, IAP family, fluorescence polarization (AID 1018). Format: functional. Background: Polarisation of emitted light reports the rotation of a fluorescent probe.
Assay [14] in a line: microbe, parasite or virus in culture. Format: functional. As to conditions: Mycobacterium tuberculosis.
Assay [15] is described as follows: THP-1 cell cytotoxicity, dose response, cytotoxicity control for non-replicating M. tuberculosis project (AID 489025). Format: functional.
Assay [16] can be described thus: HepG2 cell cytotoxicity, dose response, cytotoxicity control for non-replicating M. tuberculosis project (AID 489018). Format: functional. As to conditions: Mycobacterium tuberculosis.
The nature of assay [17]: Vero E6 cell cytotoxicity, dose response, cytotoxicity control for non-replicating M. tuberculosis project, secondary assay (AID 492998). Format: functional, VeroE6. The settings on record: Vero C1008.
Assay [18] can be described thus: cells. Format: functional.
Assay [19] relates to Vero. The experiment in a line: cells. Type of assay: functional. The settings on record: Chlorocebus sabaeus.
A short description of assay [20]: viability inhibitors of stage V gametocytes – luminescence, dose response (AID 1117278).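 Note: gametocytes exposed to compound for 24 hours.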 Type of assay: functional, cell-based.
Assay [21] in a line: viability loss in human Jurkat cells – cell-based, luminescence, cytotoxicity control for P. falciparum gametocyte viability project, dose response (AID 1117277).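 Note: potency reflects loss of cellular ATP meaning fewer viable cells.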 Format: functional.
Assay [22] has as its target T6, Estrogen receptor beta (Homo sapiens, UniProt Q92731).
In assay [23] the target is T6, Estrogen receptor beta. The experiment in a line: blockers of SRC-3 recruitment to ERβ – biochemical, ELISA, streptavidin-HRP readout, orthogonal assay, confirmation (AID 1060). For orientation: ELISA stands for enzyme-linked immunosorbent assay.
The target of a further assay is T7, Bcl-2-related protein A1 (Mus musculus, UniProt Q07440).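 Note: confirmatory dose–response counterscreen on Bfl-1, used to check hits from a UBC13 polyubiquitin inhibitor campaign.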
T7 sequence (Q07440 whole entry): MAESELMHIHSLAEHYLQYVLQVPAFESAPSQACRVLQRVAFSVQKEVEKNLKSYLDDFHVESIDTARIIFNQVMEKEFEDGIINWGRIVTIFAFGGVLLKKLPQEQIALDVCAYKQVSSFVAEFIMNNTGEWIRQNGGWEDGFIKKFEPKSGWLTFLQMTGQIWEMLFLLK
Format: functional.

Assay [24] has as its target T8, Ubiquitin-conjugating enzyme E2 N (Homo sapiens, UniProt P61088).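 Note: Dose-response confirmation in a TR-FRET assay detecting UBC13-driven polyubiquitin chain formation, inhibition measured.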
T8 sequence (P61088 whole entry): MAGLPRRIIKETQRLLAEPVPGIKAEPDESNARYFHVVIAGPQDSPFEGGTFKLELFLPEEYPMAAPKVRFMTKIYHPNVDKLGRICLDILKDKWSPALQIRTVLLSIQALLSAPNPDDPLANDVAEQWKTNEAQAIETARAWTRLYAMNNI
Format: functional.

Calls of active or inactive are those of the source. Where only a bound is given, the exact number is not on record here.

T5 sequence (P98170 whole entry): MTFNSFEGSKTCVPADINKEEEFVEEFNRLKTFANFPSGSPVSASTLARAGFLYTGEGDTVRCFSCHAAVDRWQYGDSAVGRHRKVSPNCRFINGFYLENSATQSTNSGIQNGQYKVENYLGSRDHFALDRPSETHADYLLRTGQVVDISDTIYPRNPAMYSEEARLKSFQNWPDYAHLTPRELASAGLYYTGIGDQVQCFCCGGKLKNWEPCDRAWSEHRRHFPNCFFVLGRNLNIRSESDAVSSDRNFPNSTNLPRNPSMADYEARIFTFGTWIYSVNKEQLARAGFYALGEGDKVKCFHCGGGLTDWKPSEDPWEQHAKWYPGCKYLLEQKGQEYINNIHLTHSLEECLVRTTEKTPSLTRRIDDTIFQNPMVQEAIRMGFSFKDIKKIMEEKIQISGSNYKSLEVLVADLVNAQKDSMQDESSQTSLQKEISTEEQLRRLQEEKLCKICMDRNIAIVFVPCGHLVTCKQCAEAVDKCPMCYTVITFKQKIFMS
Chain of Eukaryotic translation initiation factor 4E (P63073 whole entry): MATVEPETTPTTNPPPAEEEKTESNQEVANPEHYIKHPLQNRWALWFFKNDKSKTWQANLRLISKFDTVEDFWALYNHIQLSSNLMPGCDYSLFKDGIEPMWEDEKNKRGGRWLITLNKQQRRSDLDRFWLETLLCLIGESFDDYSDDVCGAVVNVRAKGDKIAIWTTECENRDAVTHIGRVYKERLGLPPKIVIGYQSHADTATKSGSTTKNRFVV
Chain of Voltage-dependent T-type calcium channel subunit alpha-1H (O95180 whole entry): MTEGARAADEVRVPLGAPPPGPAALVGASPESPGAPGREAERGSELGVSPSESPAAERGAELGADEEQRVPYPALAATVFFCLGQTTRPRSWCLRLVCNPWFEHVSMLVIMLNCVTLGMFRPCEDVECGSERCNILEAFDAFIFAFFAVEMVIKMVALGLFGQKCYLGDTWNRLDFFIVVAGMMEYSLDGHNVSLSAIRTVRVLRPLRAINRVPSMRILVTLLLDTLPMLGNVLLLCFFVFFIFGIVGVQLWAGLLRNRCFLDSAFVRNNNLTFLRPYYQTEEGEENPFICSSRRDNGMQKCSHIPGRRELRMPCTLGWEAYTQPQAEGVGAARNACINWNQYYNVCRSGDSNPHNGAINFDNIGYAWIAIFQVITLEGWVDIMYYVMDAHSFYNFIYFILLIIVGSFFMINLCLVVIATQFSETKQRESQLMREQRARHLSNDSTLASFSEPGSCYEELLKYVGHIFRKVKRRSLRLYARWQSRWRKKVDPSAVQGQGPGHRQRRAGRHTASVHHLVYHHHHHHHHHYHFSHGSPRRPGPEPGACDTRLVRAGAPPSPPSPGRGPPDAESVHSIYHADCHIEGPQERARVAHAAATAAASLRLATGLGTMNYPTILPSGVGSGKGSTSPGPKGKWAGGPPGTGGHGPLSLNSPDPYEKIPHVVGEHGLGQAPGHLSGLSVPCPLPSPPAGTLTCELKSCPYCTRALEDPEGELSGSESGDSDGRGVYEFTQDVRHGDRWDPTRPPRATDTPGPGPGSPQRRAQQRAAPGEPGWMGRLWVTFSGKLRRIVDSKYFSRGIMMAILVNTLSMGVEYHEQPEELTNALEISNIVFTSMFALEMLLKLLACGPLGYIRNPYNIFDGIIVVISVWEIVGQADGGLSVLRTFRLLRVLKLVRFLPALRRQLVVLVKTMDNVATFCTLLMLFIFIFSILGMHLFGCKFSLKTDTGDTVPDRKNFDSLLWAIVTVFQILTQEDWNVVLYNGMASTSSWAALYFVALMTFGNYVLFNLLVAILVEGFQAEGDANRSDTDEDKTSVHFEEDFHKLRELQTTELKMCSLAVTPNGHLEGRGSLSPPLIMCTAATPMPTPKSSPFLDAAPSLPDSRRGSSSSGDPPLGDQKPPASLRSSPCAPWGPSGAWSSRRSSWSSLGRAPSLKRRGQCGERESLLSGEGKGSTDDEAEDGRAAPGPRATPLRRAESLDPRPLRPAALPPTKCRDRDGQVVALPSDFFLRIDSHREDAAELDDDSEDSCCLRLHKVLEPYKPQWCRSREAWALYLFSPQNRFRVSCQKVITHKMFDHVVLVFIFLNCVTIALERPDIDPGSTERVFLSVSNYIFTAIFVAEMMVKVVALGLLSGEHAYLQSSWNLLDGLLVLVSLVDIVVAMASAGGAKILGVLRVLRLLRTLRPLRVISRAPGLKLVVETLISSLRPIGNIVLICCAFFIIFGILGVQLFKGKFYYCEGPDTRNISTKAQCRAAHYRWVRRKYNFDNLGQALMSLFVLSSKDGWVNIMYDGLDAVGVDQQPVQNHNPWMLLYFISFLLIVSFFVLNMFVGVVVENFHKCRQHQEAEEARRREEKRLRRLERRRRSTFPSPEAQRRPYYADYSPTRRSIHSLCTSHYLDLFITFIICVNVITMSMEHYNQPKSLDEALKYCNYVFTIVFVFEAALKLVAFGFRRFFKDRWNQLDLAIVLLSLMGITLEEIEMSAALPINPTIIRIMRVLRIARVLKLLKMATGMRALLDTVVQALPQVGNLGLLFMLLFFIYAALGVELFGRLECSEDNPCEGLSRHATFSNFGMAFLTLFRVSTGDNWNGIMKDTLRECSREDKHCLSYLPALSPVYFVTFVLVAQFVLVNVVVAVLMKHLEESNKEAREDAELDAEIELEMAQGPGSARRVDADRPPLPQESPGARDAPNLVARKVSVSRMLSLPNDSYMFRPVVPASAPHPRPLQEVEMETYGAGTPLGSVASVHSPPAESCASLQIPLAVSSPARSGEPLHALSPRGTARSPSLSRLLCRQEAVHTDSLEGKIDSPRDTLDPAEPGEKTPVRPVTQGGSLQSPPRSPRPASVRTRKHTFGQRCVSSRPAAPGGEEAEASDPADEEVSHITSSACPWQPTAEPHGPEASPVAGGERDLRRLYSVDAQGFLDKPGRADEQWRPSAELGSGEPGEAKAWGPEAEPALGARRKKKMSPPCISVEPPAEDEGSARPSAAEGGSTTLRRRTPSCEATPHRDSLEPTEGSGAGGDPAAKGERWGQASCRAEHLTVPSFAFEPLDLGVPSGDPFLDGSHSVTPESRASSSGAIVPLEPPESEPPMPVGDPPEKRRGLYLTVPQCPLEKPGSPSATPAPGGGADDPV
T6 sequence (Q92731 whole entry): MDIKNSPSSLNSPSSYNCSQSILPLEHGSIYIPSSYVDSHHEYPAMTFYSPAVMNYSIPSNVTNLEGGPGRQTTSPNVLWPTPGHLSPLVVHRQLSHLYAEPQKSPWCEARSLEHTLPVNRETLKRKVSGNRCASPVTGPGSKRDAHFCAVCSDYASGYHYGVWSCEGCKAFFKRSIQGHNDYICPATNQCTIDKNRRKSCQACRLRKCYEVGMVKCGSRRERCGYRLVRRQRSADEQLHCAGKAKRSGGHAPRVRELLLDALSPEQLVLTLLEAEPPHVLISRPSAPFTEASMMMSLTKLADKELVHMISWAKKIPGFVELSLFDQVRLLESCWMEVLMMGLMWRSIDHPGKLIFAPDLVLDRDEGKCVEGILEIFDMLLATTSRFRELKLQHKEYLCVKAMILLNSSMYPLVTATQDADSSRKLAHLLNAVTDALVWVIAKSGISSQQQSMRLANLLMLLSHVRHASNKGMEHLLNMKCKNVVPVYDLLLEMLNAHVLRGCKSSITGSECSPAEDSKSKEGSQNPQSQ
Chain of DNA dC->dU-editing enzyme APOBEC-3G (Q9HC16 whole entry, the tested form may be a part): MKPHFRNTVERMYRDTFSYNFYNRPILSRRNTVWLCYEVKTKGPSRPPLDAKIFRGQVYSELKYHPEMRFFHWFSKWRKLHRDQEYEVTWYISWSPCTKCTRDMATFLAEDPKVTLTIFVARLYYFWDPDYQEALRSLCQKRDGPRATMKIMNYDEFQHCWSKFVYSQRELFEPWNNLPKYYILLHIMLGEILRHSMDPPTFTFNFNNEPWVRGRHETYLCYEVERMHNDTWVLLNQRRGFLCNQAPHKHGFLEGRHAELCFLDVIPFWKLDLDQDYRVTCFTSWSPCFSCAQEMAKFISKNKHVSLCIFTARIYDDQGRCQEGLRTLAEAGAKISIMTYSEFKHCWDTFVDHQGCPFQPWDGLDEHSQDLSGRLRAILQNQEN
Chain of DNA dC->dU-editing enzyme APOBEC-3A (P31941 whole entry): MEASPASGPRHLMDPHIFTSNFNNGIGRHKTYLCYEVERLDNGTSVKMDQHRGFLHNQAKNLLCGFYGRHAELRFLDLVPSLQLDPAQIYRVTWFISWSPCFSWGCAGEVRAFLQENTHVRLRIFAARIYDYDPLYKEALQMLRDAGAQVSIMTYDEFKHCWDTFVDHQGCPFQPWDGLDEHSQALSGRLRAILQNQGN
Chain of Large T antigen (P03070 whole entry): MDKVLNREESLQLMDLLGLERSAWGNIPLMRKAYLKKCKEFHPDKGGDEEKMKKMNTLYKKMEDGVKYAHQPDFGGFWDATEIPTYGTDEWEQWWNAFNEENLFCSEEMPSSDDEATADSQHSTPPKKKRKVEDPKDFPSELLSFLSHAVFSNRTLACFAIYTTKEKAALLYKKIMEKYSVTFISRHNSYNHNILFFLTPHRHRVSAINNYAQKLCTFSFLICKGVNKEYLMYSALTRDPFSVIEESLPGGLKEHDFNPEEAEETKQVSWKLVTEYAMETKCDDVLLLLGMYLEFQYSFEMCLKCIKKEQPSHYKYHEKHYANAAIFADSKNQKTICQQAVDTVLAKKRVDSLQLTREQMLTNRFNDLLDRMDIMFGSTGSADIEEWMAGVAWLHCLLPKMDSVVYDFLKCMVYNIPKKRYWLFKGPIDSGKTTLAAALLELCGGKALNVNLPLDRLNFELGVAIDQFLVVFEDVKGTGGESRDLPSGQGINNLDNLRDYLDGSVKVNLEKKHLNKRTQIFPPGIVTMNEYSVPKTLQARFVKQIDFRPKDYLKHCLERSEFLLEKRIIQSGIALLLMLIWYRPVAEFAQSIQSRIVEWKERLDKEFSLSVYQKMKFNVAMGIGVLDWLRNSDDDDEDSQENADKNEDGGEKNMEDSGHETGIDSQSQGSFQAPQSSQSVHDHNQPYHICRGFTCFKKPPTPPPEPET

For orientation: IC50 means the concentration that inhibits the measured activity by half. Regarding `COC(=O)c1sc(NC(=O)c2ccc(Cn3cc(Cl)cn3)o2)c(C#N)c1C`, the IC50 in assay [1] was > 100 µM (active). Broadly, the EC50 is the concentration giving half of the maximal effect. For `N#Cc1ccccc1CN1C(=O)S/C(=C/c2cccn2-c2cccc(C(=O)O)c2)C1=O`, the half-maximal effective concentration (EC50) in assay [2] and in assay [3] was > 300 µM (not active) each time. Further, the IC50 is > 100 µM (active) on Large T antigen; 14.9 µM (active) in assay [4]; 37 µM (active) in [5]; 5.19 µM (active) in [6]; > 100 µM (active) at Protein Tat. Consider `Cc1nn(Cc2ccc(Cl)c(Cl)c2)c(C)c1NC(=O)c1cc(-c2ccco2)on1`, for which the EC50 in assay [7] is 1.35 µM (active). Same read-out and setting: the figure for `CC1Cc2ccccc2N1C(=O)c1cc2sccc2n1Cc1ccc(F)cc1` (centres undefined) is 5.86 µM (active).

Consider `O=S(=O)(c1cccc(-c2csc(-c3ccccc3)n2)c1)N1CCOCC1`, for which the CC50 in assay [8] was 37.8 µM (active). In the assay “cells [9]”, the IC50 is 28.4 µM (active).

As to `Cc1ccc(Nc2nc(=O)c3cccnc3s2)c(Br)c1`, the CC50 in [8] is 22.8 µM (active). Besides, the IC50 in the assay on Vero [10] was > 25 µM (active); in “cells [9]” it was 25 µM (active).

As to `Cc1ccc(Nc2nc3ccccc3nc2-n2nc(C)cc2C)cc1`, in [11], the IC50 was > 64 µM (inactive). Turning to `O=C(NCc1cccs1)c1noc2c1CCCCC2`, the IC50 was > 100 µM (inactive) in assay [12] and > 100 µM (not active) in assay [13]. On to `Cc1cccc(/C=C/c2onc(C)c2[N+](=O)[O-])n1`, for which the CC50 was 14.3 µM (active) in assay [14]; 7.76 µM (active) in [15]; > 20 µM (active) in assay [16]; 6.87 µM (active) in [17]; 13.8 µM (active) with Vero [19]. The IC50 in the assay “cells [18]” is 8.06 µM (active).

As for `C=CCN1C(=O)CSc2ccc(C(=O)NCc3ccco3)cc21`, the IC50 in assay [1] is > 100 µM (active). Consider `Cc1cccc(OCCN2C(=O)c3ccccc3C2=O)c1`, for which the figures for the IC50 in [20] and in assay [21] were > 109 µM (inactive) and > 83.2 µM (inactive), respectively. In the case of `O=C(CSCC(=O)N1CCN(c2ccccc2)CC1)Nc1nc(-c2ccc(Cl)s2)cs1`, the EC50 in [7] is 4.28 µM (active). In the case of `Cc1cc(C)n(Cc2ccc(Cl)nc2)n1`, the values for the IC50 in assay [20] and in [21] were > 109 µM (inactive) and > 83.3 µM (inactive), respectively.

As to `CCCC(c1nnnn1CC(=O)OCC)N(Cc1cc2c(C)cc(C)cc2nc1O)C1CCCC1` (centres undefined), the half-inhibitory concentration (IC50) in the assay “cells [9]” was 6.29 µM (active). With `CSc1nnc(Cn2c(=O)sc3ccccc32)n1-c1cccc(Cl)c1`, in [8], the CC50 was > 50 µM (active). The IC50 in the assay “cells [9]” is 8.48 µM (active). With `COCCNC(C)C(=O)C12CC3CC(CC(C3)C1)C2` (centres undefined), the IC50 in assay [1] is > 100 µM (active). `Cc1cc(C)nc(N2CCCC(C(=O)Nc3cc(F)ccc3C)C2)n1` (centres undefined): the IC50 was > 100 µM (inactive) in [12] and > 100 µM (not active) in [13]. For `Cc1cc(CNC(=O)COc2ccccc2)c2ccccc2n1` the same measures were > 100 µM (inactive) and > 100 µM (not active). As for `Nc1c(Cl)cc(Cl)cc1C(=O)OCC(=O)NC1CC1`, the values for the IC50 on Estrogen receptor beta [22] and against Estrogen receptor beta [23] were 26.5 µM (active) and < 23 nM (not active), respectively.

Regarding `COc1cc(C(=O)NCc2ccc(C(=O)NCC(OC)OC)cc2)cc(OC)c1OC`, the IC50 in assay [11] is 50 µM (inactive). The same measure, in the same setting: the figure for `COC(=O)CSc1nnc(-c2cccc(NC(=O)c3ccc(C)cc3)c2)n1C` is > 64 µM (inactive).

Turning to `O=C(Cn1cnc2c(oc3ccccc32)c1=O)N1CCCC1`, the IC50 was > 109 µM (inactive) in [20] and > 83.4 µM (inactive) in [21].

`CC1CCCC(C)N1CC(=O)Nc1sc2c(c1C#N)CCCC2` (centres undefined): at Estrogen receptor beta [23], the IC50 is 37.2 nM (not active). `CCOc1ccccc1CNCCNC(=O)c1nonc1N`: the IC50 in [20] was > 109 µM (inactive); in assay [21] it was > 83.3 µM (inactive). Take `N#Cc1ccc(OCC(=O)NNC(=S)NC(=O)C2CC2)cc1`: the IC50 at Bcl-2-related protein A1 was > 20 µM (inactive); in assay [24], 6.5 µM (active).

Source of the values: ChEMBL document CHEMBL1201862, “PubChem BioAssay data set” (2004).
